Laboratory results: patent publication US20250090576A1, “METHODS FOR TREATING NONTUBERCULOUS MYCOBACTERIA DISEASES” (Microbion Corporation, priority 2022, published 2025)
In brackets after ≈: the same amount, converted by molar mass. Read-outs that look alike come from different tables or passages of the source.

Key:
[1] = test system: M. abscessus MABS2; assay: MIC (Table 8); type: cell-based; details: Mycobacteroides abscessus
[2] = test system: M. abscessus cystic fibrosis patient strain 00703 in THP-1 macrophages; assay: Mycobacterial survival (CFU) in infected THP-1 macrophages; type: cell-based; details: CF patient strain 00703; after 3 days; drugs at MIC
Procedure: (§1) THP-1 macrophages were differentiated with 50 ng/ml PMA for 24 hours, followed by 24 hours in media prior to infection. Differentiated THP-1 macrophages were either infected with M. avium strains or M. abscessus strains for 1 hour with an multiplicity of infection (MOI) of 5 or uninfected. Cells were washed twice, followed by 1 hour of antibiotic treatment with 200 μg/ml of amikacin to remove extracellular bacteria. After the antibiotic step, cells were washed once more and BisEDT (BIZ) or amikacin was added once to selected wells (see in vitro doses below).
(§2) The treatments included: vehicle, amikacin, Soluble BisEDT (S Biz), Insoluble BisEDT (I Biz), and amikacin+BisEDT. The time points for sample preparation were 72 h for M. abscessus strains and 4- and 7-days post infection for M. avium strains. At the indicated timepoints cell media was removed and replaced with 400 ul of 0.1% triton x-100 in H2O for lysis. Wells were pipetted 25 times to disrupt cells then diluted and plated for CFU enumeration.

[3] = test system: M. abscessus strain 19977 in THP-1 macrophages; assay: as above; type: cell-based; details: after 3 days, drugs at MIC
Procedure: as §1, §2

[4] = test system: M. avium strain 104 (MAH 104) in THP-1 macrophages; assay: as above; type: cell-based; details: 4-day and 7-day, drugs at MIC
Procedure: as §1, §2

[5] = test system: M. abscessus cystic fibrosis patient strain 01715 in THP-1 macrophages; assay: as above; type: cell-based; details: CF patient strain 01715; after 3 days; drugs at MIC
Procedure: as §1, §2

[6] = test system: CF patient strain DNA00133; assay: MIC broth dilution, growth by turbidity/OD 595 nm; type: cell-based, M. avium; details: for MIC: Mycobacterium avium
Procedure: (§3) Mycobacteria strains were used to determine MICs of BisEDT and amikacin. Strains included cystic fibrosis patient isolates from National Jewish Hospital. A range of high dose to low dose of antibiotics was used to determine bacteria susceptibility. M. avium strain 104, M. avium strain 3388, and CF patient strain DNA00133 were grown to log phase (7 days) while M. abscessus strain 19977, CF patient strain DNA00703, and CF patient strain DNA01715 achieved log phase (4 days) on 7H10 middlebrook media plates supplemented with 10% OADC (Oleic acid, Albumin, Dextrose, Catalase). […] For BisEDT, two types of compound physical states were tested. First, BisEDT was solubilized in DMSO (furthermore labeled soluble BisEDT). Second, BisEDT was made in suspension to mimic in vivo studies (furthermore labeled insoluble BisEDT). […] Control tubes containing no antibiotics were also included for each antibiotic tested. Inoculums of […] bacteria for each strain was measured with optical density (O.D.) at 595 nm. 10 μl of these inoculums were added to each antibiotic tube and incubated in a shaking incubator at 37° C. and 200 rpm. Slow growing stains were measured for growth after 10 days incubation while fast growing strains were incubated for 5 days. After incubation, 100 μl from each tube was pulled and placed in a 96-well plate for O.D. reading. Turbidity determined sensitive, intermediate, or resistant bacteria.

[7] = test system: M. avium strain 104 (MAH 104); assay: MIC broth dilution, growth by turbidity/OD 595 nm; type: cell-based; details: for Sensitivity phenotype (R/I/S): MAH 104; for MIC: Mycobacterium avium
Procedure: as §3

[8] = test system: M. avium strain 3388 (MAH 3388); assay: MIC broth dilution, growth by turbidity/OD 595 nm; type: cell-based; details: for Sensitivity phenotype (R/I/S): MAH 3388; for MIC: Mycobacterium avium
Procedure: as §3

[9] = test system: M. abscessus strain 19977; assay: MIC broth dilution, growth by turbidity/OD 595 nm; type: cell-based; details: for Sensitivity phenotype (R/I/S): 19977; for MIC: Mycobacteroides abscessus
Procedure: as §3

[10] = test system: M. abscessus MABS4; assay: MIC (Table 8); type: cell-based; details: Mycobacteroides abscessus
[11] = test system: M. abscessus MABS7; assay: MIC (Table 8); type: cell-based; details: Mycobacteroides abscessus
[12] = test system: M. abscessus MABS1; assay: MIC (Table 8); type: cell-based; details: Mycobacteroides abscessus
[13] = test system: M. abscessus MABS11; assay: MIC (Table 8); type: cell-based; details: Mycobacteroides abscessus

**Q.** How did the MIC [1] turn out when `NCC[C@H](O)C(=O)N[C@@H]1C[C@H](N)[C@@H](O[C@H]2O[C@H](CN)[C@@H](O)[C@H](O)[C@H]2O)[C@H](O)[C@H]1O[C@H]1O[C@H](CO)[C@@H](O)[C@H](N)[C@H]1O` [amikacin] was run?
**A.** The MIC was 32 µg/mL (≈ 54.6 µM).

**Q.** And the “mycobacterial survival (CFU, bacterial load) in THP-1 macrophages, in words” value (“mycobacterial survival” for short) [2]?
**A.** Its value is “bacteriostatic”.

**Q.** What about the “mycobacterial survival” value [3] of the same compound?
**A.** Its value is “somewhat reduced CFU counts from initial infection rates, but the difference was not significant”.

**Q.** What about the “mycobacterial survival” value [4] of the same compound?
**A.** The value was “greatly reduced the bacteria load”.

**Q.** And the “mycobacterial survival” value [5]?
**A.** The value was “bacteriostatic”.

**Q.** And the “Sensitivity phenotype (R/I/S)” value ([6]; 1 μg/mL)?
**A.** Its value is “R”.

**Q.** And the “Sensitivity phenotype (R/I/S)” value ([6]; 2 μg/mL)?
**A.** Its value is “R”.

**Q.** What about the “Sensitivity phenotype (R/I/S)” value ([6]; 4 μg/mL) of the same compound?
**A.** The value was “R”.

**Q.** And the “Sensitivity phenotype (R/I/S)” value ([6]; 8 μg/mL)?
**A.** Its value is “R”.

**Q.** And the “Sensitivity phenotype (R/I/S)” value ([6]; 16 μg/mL)?
**A.** The value was “R”.

**Q.** What about the “Sensitivity phenotype (R/I/S)” value ([6]; 32 μg/mL) of the same compound?
**A.** The value was “R”.

**Q.** And the “Sensitivity phenotype (R/I/S)” value ([6]; 64 μg/mL)?
**A.** Its value is “R”.

**Q.** And the “Sensitivity phenotype (R/I/S)” value ([6]; 128 μg/mL)?
**A.** The value was “R”.

**Q.** What about the MIC [6] of the same compound?
**A.** Its MIC is greater than 128 µg/mL.

**Q.** What about the MIC ([6]; M. avium strain 1333 (Table 3), read-out: MIC determined for the strain, used for treatment of infected macrophages) of the same compound?
**A.** The MIC was 8 µg/mL (≈ 13.7 µM).

**Q.** And the “Sensitivity phenotype (R/I/S)” value ([7]; 1 μg/mL)?
**A.** The value was “R”.

**Q.** And the “Sensitivity phenotype (R/I/S)” value ([7]; 2 μg/mL)?
**A.** The value was “R”.

**Q.** What about the “Sensitivity phenotype (R/I/S)” value ([7]; 4 μg/mL) of the same compound?
**A.** Its value is “R”.

**Q.** What about the “Sensitivity phenotype (R/I/S)” value ([7]; 8 μg/mL) of the same compound?
**A.** Its value is “S”.

**Q.** And the “Sensitivity phenotype (R/I/S)” value ([7]; 16 μg/mL)?
**A.** The value was “S”.

**Q.** And the “Sensitivity phenotype (R/I/S)” value ([7]; 32 μg/mL)?
**A.** The value was “S”.

**Q.** And the “Sensitivity phenotype (R/I/S)” value ([7]; 64 μg/mL)?
**A.** The value was “S”.

**Q.** And the “Sensitivity phenotype (R/I/S)” value ([7]; 128 μg/mL)?
**A.** Its value is “S”.

**Q.** What about the MIC ([7]; M. avium strain 104 (Table 3), read-out: MIC determined for the strain, used for treatment of infected macrophages) of the same compound?
**A.** Its MIC is 8 µg/mL (≈ 13.7 µM).

**Q.** What about the MIC ([7]; M. avium strain 104, read-out: MIC) of the same compound?
**A.** The MIC was 8 µg/mL (≈ 13.7 µM).

**Q.** What about the “Sensitivity phenotype (R/I/S)” value ([8]; 1 μg/mL) of the same compound?
**A.** The value was “R”.

**Q.** What about the “Sensitivity phenotype (R/I/S)” value ([8]; 2 μg/mL) of the same compound?
**A.** Its value is “R”.

**Q.** And the “Sensitivity phenotype (R/I/S)” value ([8]; 4 μg/mL)?
**A.** The value was “I”.

**Q.** What about the “Sensitivity phenotype (R/I/S)” value ([8]; 8 μg/mL) of the same compound?
**A.** Its value is “S”.

**Q.** And the “Sensitivity phenotype (R/I/S)” value ([8]; 16 μg/mL)?
**A.** The value was “S”.

**Q.** What about the “Sensitivity phenotype (R/I/S)” value ([8]; 32 μg/mL) of the same compound?
**A.** Its value is “S”.

**Q.** What about the “Sensitivity phenotype (R/I/S)” value ([8]; 64 μg/mL) of the same compound?
**A.** Its value is “S”.

**Q.** And the “Sensitivity phenotype (R/I/S)” value ([8]; 128 μg/mL)?
**A.** The value was “S”.

**Q.** And the MIC ([8]; M. avium strain 3388 (Table 3), read-out: MIC determined for the strain, used for treatment of infected macrophages)?
**A.** The MIC was 8 µg/mL (≈ 13.7 µM).

**Q.** What about the MIC ([8]; M. avium strain 3388, read-out: MIC) of the same compound?
**A.** Its MIC is 8 µg/mL (≈ 13.7 µM).

**Q.** What about the “Sensitivity phenotype (R/I/S)” value ([9]; 1 μg/mL) of the same compound?
**A.** The value was “R”.

**Q.** And the “Sensitivity phenotype (R/I/S)” value ([9]; 2 μg/mL)?
**A.** Its value is “R”.

**Q.** And the “Sensitivity phenotype (R/I/S)” value ([9]; 4 μg/mL)?
**A.** The value was “R”.

**Q.** What about the “Sensitivity phenotype (R/I/S)” value ([9]; 8 μg/mL) of the same compound?
**A.** The value was “R”.

**Q.** What about the “Sensitivity phenotype (R/I/S)” value ([9]; 16 μg/mL) of the same compound?
**A.** Its value is “R”.

**Q.** What about the “Sensitivity phenotype (R/I/S)” value ([9]; 32 μg/mL) of the same compound?
**A.** Its value is “S”.

**Q.** What about the “Sensitivity phenotype (R/I/S)” value ([9]; 64 μg/mL) of the same compound?
**A.** The value was “S”.

**Q.** And the “Sensitivity phenotype (R/I/S)” value ([9]; 128 μg/mL)?
**A.** The value was “S”.

**Q.** And the MIC ([9]; M. abscessus strain 19977 (Table 4), read-out: MIC determined for the strain, used for treatment of infected macrophages)?
**A.** The MIC was 32 µg/mL (≈ 54.6 µM).

**Q.** And the MIC ([9]; M. abscessus strain 19977, read-out: MIC)?
**A.** The MIC was 32 µg/mL (≈ 54.6 µM).

**Q.** What about the MIC [10] of the same compound?
**A.** Its MIC is 4 µg/mL (≈ 6.83 µM).

**Q.** And the MIC [11]?
**A.** The MIC was 2 µg/mL (≈ 3.42 µM).

**Q.** And the MIC [12]?
**A.** The MIC was 16 µg/mL (≈ 27.3 µM).

**Q.** And the MIC [13]?
**A.** Its MIC is 1 µg/mL (≈ 1.71 µM).
